In ChEMBL document CHEMBL5584354, “Impact of Conjugation of the Reactive Oxygen Species (ROS)-Generating Catalytic Moiety with Membrane-Active Antimicrobial Peptoids: Promoting Multitarget Mechanism and Enhancing Selectivity” (J Med Chem, 2024):
Values after ≈ are worked out from the molar mass of the structure shown. Non-standard residues stand in square brackets, D forms with d. Residues, ends and D or L forms follow the SMILES beside them. *: point of attachment. X2 = C[C@@H](c1ccccc1)N(C[C@H](N)C(=O)NCC(=O)N[C@@H](Cc1c[nH]cn1)C(N)=O)*; X1 = NC(=O)[C@H](Cc1c[nH]cn1)NC(=O)CNC(=O)[C@@H](N)CN*; Gly(N(CH2)2(3-indolyl)) = O=C(O)CNCCc1c[nH]c2ccccc12; Nspe = C[C@H](NCC(=O)O)c1ccccc1; Nphe = O=C(O)CNCc1ccccc1; Nlys = NCCCCNCC(=O)O

Legend:
[1] = tested on: Escherichia coli; assay: Antibacterial activity against Escherichia coli ATCC 25922 assessed as inhibition of bacterial growth incubated for 24 hrs by broth dilution method; type: functional
[2] = Hemolytic activity in male Sprague-Dawley rat erythrocytes assessed as concentration required for 50% hemolysis incubated for 1 hr by absorbance based method; type: toxicity, cell-based, Erythrocyte
[3] = tested on: Staphylococcus aureus; assay: Antibacterial activity against Staphylococcus aureus ATCC 25923 assessed as inhibition of bacterial growth incubated for 24 hrs by broth dilution method; type: functional
[4] = Hemolytic activity in male Sprague-Dawley rat erythrocytes at 50 uM incubated for 1 hr by absorbance based method relative to control; type: toxicity, cell-based, Erythrocyte; details: read-out: Activity
[5] = Hemolytic activity in male Sprague-Dawley rat erythrocytes at 100 uM incubated for 1 hr by absorbance based method relative to control; type: toxicity, cell-based, Erythrocyte; details: read-out: Activity
[6] = tested on: Erythrocyte; assay: Hemolytic activity in male Sprague-Dawley rat erythrocytes assessed as concentration required for 10% hemolysis incubated for 1 hr by absorbance based method; type: toxicity, cell-based
[7] = Selectivity index, ratio of HC10 for hemolytic activity in male Sprague-Dawley rat erythrocytes to MIC for antibacterial activity against Escherichia coli ATCC 25922; type: toxicity; details: read-out: Selectivity Index
[8] = Hemolytic activity in male Sprague-Dawley rat erythrocytes at 25 uM incubated for 1 hr by absorbance based method relative to control; type: toxicity, cell-based, Erythrocyte; details: read-out: Activity

| SMILES | MIC [1] | MIC [3] | HC50 at 1 h [2] | hemolysis at 1 h, 50 µM [4] | hemolysis at 1 h, 100 µM [5] | HC10 [6] | selectivity ratio [7] | hemolysis at 1 h, 25 µM [8] |
| --- | --- | --- | --- | --- | --- | --- | --- | --- |
| C[C@@H](c1ccccc1)N(CC(=O)N(CCCCN)CC(=O)N(CC(=O)N(CC(=O)N(CCCCN)CC(=O)N(CC(=O)N(CC(N)=O)Cc1ccccc1)Cc1ccccc1)[C@@H](C)c1ccccc1)[C@@H](C)c1ccccc1)C(=O)CN(C(=O)CN(CCCCN)C(=O)CN(Cc1ccccc1)C(=O)CN(Cc1ccccc1)C(=O)CN(CCCCN)C(=O)[C@H](Cc1c[nH]cn1)NC(=O)CNC(=O)CN)[C@@H](C)c1ccccc1 (H-GGH[Nlys][Nphe][Nphe][Nlys][Nspe][Nspe][Nlys][Nspe][Nspe][Nlys][Nphe][Nphe]-NH2) | 12.5 µM (≈ 25.2 µg/mL) | 25 µM (≈ 50.4 µg/mL) | > 100 µM | 8.68% | 18.4% | 56.5 µM | 4.5 | 3.01% |
| C[C@@H](c1ccccc1)N(CC(N)=O)C(=O)CN(CCCCN)C(=O)CN(CCCCN)C(=O)CN(C(=O)CN(C(=O)CN(CCCCN)C(=O)CN(C(=O)CN(C(=O)CN(CCCCN)C(=O)CN(CCc1c[nH]c2ccccc12)C(=O)CN(CCc1c[nH]c2ccccc12)C(=O)CN(CCCCN)C(=O)[C@H](Cc1c[nH]cn1)NC(=O)CNC(=O)CN)[C@@H](C)c1ccccc1)[C@@H](C)c1ccccc1)[C@@H](C)c1ccccc1)[C@@H](C)c1ccccc1 (H-GGH[Nlys][Gly(N(CH2)2(3-indolyl))][Gly(N(CH2)2(3-indolyl))][Nlys][Nspe][Nspe][Nlys][Nspe][Nspe][Nlys][Nlys][Nspe]-NH2) | 25 µM (≈ 52.9 µg/mL) | 6.3 µM (≈ 13.3 µg/mL) | > 100 µM | 5.9% | 6.4% | > 100 µM | > 4 | 4.98% |
| C[C@@H](c1ccccc1)N(CC(=O)NCC(=O)NC[C@H](N)C(=O)NCC(=O)N[C@@H](Cc1c[nH]cn1)C(N)=O)C(=O)CN(CCCCN)C(=O)CN(C(=O)CN(C(=O)CN(CCCCN)C(=O)CN(C(=O)CN(C(=O)CN(CCCCN)C(=O)CN(C(=O)CN(C(=O)CNCCCCN)[C@@H](C)c1ccccc1)[C@@H](C)c1ccccc1)[C@@H](C)c1ccccc1)[C@@H](C)c1ccccc1)[C@@H](C)c1ccccc1)[C@@H](C)c1ccccc1 (H-[Nlys][Nspe][Nspe][Nlys][Nspe][Nspe][Nlys][Nspe][Nspe][Nlys][Nspe]G-X1) | 12.5 µM (≈ 24.9 µg/mL) | 12.5 µM (≈ 24.9 µg/mL) | > 100 µM | 8.79% | 23.2% | 51.1 µM | 4 | 2.02% |
| C[C@@H](c1ccccc1)N(CC(N)=O)C(=O)CN(C(=O)CN(CCCCN)C(=O)CN(C(=O)CN(C(=O)CN(CCCCN)C(=O)CN(C(=O)CN(C(=O)CN(CCCCN)C(=O)CN(CCc1c[nH]c2ccccc12)C(=O)CN(CCc1c[nH]c2ccccc12)C(=O)CNCCCCN)[C@@H](C)c1ccccc1)[C@@H](C)c1ccccc1)[C@@H](C)c1ccccc1)[C@@H](C)c1ccccc1)[C@@H](C)c1ccccc1 | 3.1 µM (≈ 5.88 µg/mL) | < 0.8 µM | 63.6 µM | 55.3% | 73.9% | 7.9 µM | 2.5 | 33% |
| C[C@@H](c1ccccc1)N(CC(N)=O)C(=O)CN(CCCCN)C(=O)CN(C(=O)CN(C(=O)CN(CCCCN)C(=O)CN(C(=O)CN(C(=O)CN(CCCCN)C(=O)CN(C(=O)CN(C(=O)CN(CCCCN)C(=O)CNC(=O)[C@H](Cc1c[nH]cn1)NC(=O)CNC(=O)CN)[C@@H](C)c1ccccc1)[C@@H](C)c1ccccc1)[C@@H](C)c1ccccc1)[C@@H](C)c1ccccc1)[C@@H](C)c1ccccc1)[C@@H](C)c1ccccc1 (H-GGHG[Nlys][Nspe][Nspe][Nlys][Nspe][Nspe][Nlys][Nspe][Nspe][Nlys][Nspe]-NH2) | 12.5 µM (≈ 24.6 µg/mL) | 6.3 µM (≈ 12.4 µg/mL) | 100 µM | 22.4% | 49.8% | 27.7 µM | 2.2 | 6.5% |
| C[C@@H](c1ccccc1)N(CC(N)=O)C(=O)CN(CCCCN)C(=O)CN(C(=O)CN(C(=O)CN(CCCCN)C(=O)CN(C(=O)CN(C(=O)CN(CCCCN)C(=O)CN(C(=O)CN(C(=O)CN(CCCCN)C(=O)[C@H](Cc1c[nH]cn1)NC(=O)CNC(=O)CN)[C@@H](C)c1ccccc1)[C@@H](C)c1ccccc1)[C@@H](C)c1ccccc1)[C@@H](C)c1ccccc1)[C@@H](C)c1ccccc1)[C@@H](C)c1ccccc1 (H-GGH[Nlys][Nspe][Nspe][Nlys][Nspe][Nspe][Nlys][Nspe][Nspe][Nlys][Nspe]-NH2) | 12.5 µM (≈ 23.9 µg/mL) | 6.3 µM (≈ 12 µg/mL) | 81.6 µM | 32% | 61.6% | 22.9 µM | 1.8 | 7.95% |

Now from value to compound, other results behind:

| MIC [1] | MIC [3] | SMILES | HC50 at 1 h [2] | hemolysis at 1 h, 50 µM [4] | hemolysis at 1 h, 100 µM [5] | HC10 [6] | selectivity ratio [7] | hemolysis at 1 h, 25 µM [8] |
| --- | --- | --- | --- | --- | --- | --- | --- | --- |
| 25 µM (≈ 47.8 µg/mL) | 25 µM (≈ 47.8 µg/mL) | C[C@@H](c1ccccc1)N(CC(N)=O)C(=O)CN(CCCCN)C(=O)CN(Cc1ccccc1)C(=O)CN(Cc1ccccc1)C(=O)CN(CCCCN)C(=O)CN(C(=O)CN(C(=O)CN(CCCCN)C(=O)CN(Cc1ccccc1)C(=O)CN(Cc1ccccc1)C(=O)CN(CCCCN)C(=O)CNC(=O)[C@H](Cc1c[nH]cn1)NC(=O)CNC(=O)CN)[C@@H](C)c1ccccc1)[C@@H](C)c1ccccc1 (H-GGHG[Nlys][Nphe][Nphe][Nlys][Nspe][Nspe][Nlys][Nphe][Nphe][Nlys][Nspe]-NH2) | > 100 µM | 6.84% | 20.8% | 58.4 µM | 2.3 | 0.91% |
| 12.5 µM (≈ 26.2 µg/mL) | 1.6 µM (≈ 3.35 µg/mL) | C[C@@H](c1ccccc1)N(CC(N)=O)C(=O)CN(C(=O)CN(CCCCN)C(=O)CN(Cc1ccccc1)C(=O)CN(Cc1ccccc1)C(=O)CN(CCCCN)C(=O)CN(Cc1ccccc1)C(=O)CN(Cc1ccccc1)C(=O)CN(CCCCN)C(=O)CN(CCc1c[nH]c2ccccc12)C(=O)CN(CCc1c[nH]c2ccccc12)C(=O)CN(CCCCN)C(=O)[C@H](Cc1c[nH]cn1)NC(=O)CNC(=O)CN)[C@@H](C)c1ccccc1 (H-GGH[Nlys][Gly(N(CH2)2(3-indolyl))][Gly(N(CH2)2(3-indolyl))][Nlys][Nphe][Nphe][Nlys][Nphe][Nphe][Nlys][Nspe][Nspe]-NH2) | > 100 µM | 25.5% | 40.2% | 16.3 µM | 1.3 | 13.8% |
| 25 µM (≈ 53 µg/mL) | 3.1 µM (≈ 6.57 µg/mL) | C[C@@H](c1ccccc1)N(CC(=O)N(CCCCN)CC(=O)N(CC(=O)N(CC(=O)N(CCCCN)CC(=O)N(CC(=O)N(C[C@H](N)C(=O)NCC(=O)N[C@@H](Cc1c[nH]cn1)C(N)=O)[C@@H](C)c1ccccc1)[C@@H](C)c1ccccc1)[C@@H](C)c1ccccc1)[C@@H](C)c1ccccc1)C(=O)CN(C(=O)CN(CCCCN)C(=O)CN(CCc1c[nH]c2ccccc12)C(=O)CN(CCc1c[nH]c2ccccc12)C(=O)CNCCCCN)[C@@H](C)c1ccccc1 (H-[Nlys][Gly(N(CH2)2(3-indolyl))][Gly(N(CH2)2(3-indolyl))][Nlys][Nspe][Nspe][Nlys][Nspe][Nspe][Nlys][Nspe]-X2) | > 100 µM | 14% | 23.8% | 31.9 µM | 1.2 | 8.35% |
| 12.5 µM (≈ 24.2 µg/mL) | 12.5 µM (≈ 24.2 µg/mL) | C[C@@H](c1ccccc1)N(CC(=O)NC[C@H](N)C(=O)NCC(=O)N[C@@H](Cc1c[nH]cn1)C(N)=O)C(=O)CN(CCCCN)C(=O)CN(C(=O)CN(C(=O)CN(CCCCN)C(=O)CN(C(=O)CN(C(=O)CN(CCCCN)C(=O)CN(C(=O)CN(C(=O)CNCCCCN)[C@@H](C)c1ccccc1)[C@@H](C)c1ccccc1)[C@@H](C)c1ccccc1)[C@@H](C)c1ccccc1)[C@@H](C)c1ccccc1)[C@@H](C)c1ccccc1 (H-[Nlys][Nspe][Nspe][Nlys][Nspe][Nspe][Nlys][Nspe][Nspe][Nlys][Nspe]-X1) | > 100 µM | 6.22% | 19.1% | 62.6 µM | 5 | 0.04% |
